Test results: PubChem BioAssay AID2060607 (Molecular Pharmacology Branch, DTP, NCI, 2025)

Test system: 876862-298-R-J1-PDC complex spheroids, viability % test/control
Assay: Anticancer human tumor 876862-298-R-J1-PDC patient-derived endometrial carcinoma cell line growth inhibition [CLK]
Conditions: for IC50: curve of first compound; for viability, T/C: stronger effect = lower value
In short: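 Patient-derived tumor cells grown as complex spheroids with HUVEC endothelial cells and mesenchymal stem cells, treated with drug combinations. Concentrations descend in half-log steps from near clinical Cmax, or from 10 microM if Cmax unknown.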

[1] = second compound 0.0316 µM, first compound 0.0316 µM
[2] = second compound 0.0316 µM, first compound 0.1 µM
[3] = second compound 0.0316 µM, first compound 0.316 µM
[4] = second compound 0.0316 µM, first compound 1 µM
[5] = second compound 0.0316 µM, first compound 3.16 µM
[6] = second compound 0.0316 µM, first compound 10 µM
[7] = second compound 0.1 µM, first compound 0.0316 µM
[8] = second compound 0.1 µM, first compound 0.1 µM
[9] = second compound 0.1 µM, first compound 0.316 µM
[10] = second compound 0.1 µM, first compound 1 µM
[11] = second compound 0.1 µM, first compound 3.16 µM
[12] = second compound 0.1 µM, first compound 10 µM
[13] = second compound 0.316 µM, first compound 0.0316 µM
[14] = second compound 0.316 µM, first compound 0.1 µM
[15] = second compound 0.316 µM, first compound 0.316 µM
[16] = second compound 0.316 µM, first compound 1 µM
[17] = second compound 0.316 µM, first compound 3.16 µM
[18] = second compound 0.316 µM, first compound 10 µM
[19] = second compound 1 µM, first compound 0.0316 µM
[20] = second compound 1 µM, first compound 0.1 µM
[21] = second compound 1 µM, first compound 0.316 µM
[22] = second compound 1 µM, first compound 1 µM
[23] = second compound 1 µM, first compound 3.16 µM
[24] = second compound 1 µM, first compound 10 µM
[25] = second compound 3.16 µM, first compound 0.0316 µM
[26] = second compound 3.16 µM, first compound 0.1 µM
[27] = second compound 3.16 µM, first compound 0.316 µM
[28] = second compound 3.16 µM, first compound 1 µM
[29] = second compound 3.16 µM, first compound 3.16 µM
[30] = second compound 3.16 µM, first compound 10 µM
[31] = second compound 10 µM, first compound 0.0316 µM
[32] = second compound 10 µM, first compound 0.1 µM
[33] = second compound 10 µM, first compound 0.316 µM
[34] = second compound 10 µM, first compound 1 µM
[35] = second compound 10 µM, first compound 3.16 µM
[36] = second compound 10 µM, first compound 10 µM
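Further: spheroids exposed to drugs for 7 days before readout.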
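Wherever viability, T/C is given: 100% = DMSO vehicle control wells.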

With `C#Cc1c(F)ccc2cc(O)cc(-c3ncc4c(N5CC6CCC(C5)N6)nc(OCC56CCCN5CC(F)C6)nc4c3F)c12` (stereo not drawn) + CN1CCN(c2cc(C(=O)Nc3cc4cc(-c5cnn(C)c5)ccc4cn3)ccn2)CC1 the IC50 (second compound 0.0316 µM) was over 10000 nM, the IC50 (second compound 0.1 µM) was 501 nM and the IC50 (second compound 0.316 µM) was under 31.6 nM. The IC50 (second compound 1 µM) was under 31.6 nM, the IC50 (second compound 3.16 µM) was under 31.6 nM and the IC50 (second compound 10 µM) was under 31.6 nM. The viability, T/C [1] was 98.9%, the viability, T/C [2] was 92.6% and the viability, T/C [3] was 87.8%. The viability, T/C [4] was 93.7%, the viability, T/C [5] was 91.6% and the viability, T/C [6] was 74.1%. It also gave a viability, T/C [7] of 51.6%, a viability, T/C [8] of 52.2% and a viability, T/C [9] of 50.8%. It also gave a viability, T/C [10] of 48.6%, a viability, T/C [11] of 47.7% and a viability, T/C [12] of 45.4%. The viability, T/C [13] was 5.98%, the viability, T/C [14] was 5.2% and the viability, T/C [15] was 5.69%. The viability, T/C [16] was 4.19%, the viability, T/C [17] was 5.76% and the viability, T/C [18] was 4.81%. For the same compound, the viability, T/C [19] was 0.92%, the viability, T/C [20] was 0.91% and the viability, T/C [21] was 0.75%. It also gave a viability, T/C [22] of 1.82%, a viability, T/C [23] of 1.86% and a viability, T/C [24] of 1.68%. The viability, T/C [25] was 1.56%, the viability, T/C [26] was 2.17% and the viability, T/C [27] was 1.31%. It also gave a viability, T/C [28] of 2.48%, a viability, T/C [29] of 2.22% and a viability, T/C [30] of 3.07%. For the same compound, the viability, T/C [31] was 0.96%, the viability, T/C [32] was 0.95% and the viability, T/C [33] was 1.74%. The viability, T/C [34] was 1.58%, the viability, T/C [35] was 2.68% and the viability, T/C [36] was 1.54%.

Compound `CC(CO)NC(=O)c1cc(-c2ccc(Cl)cc2)nn(-c2cnn(C)c2)c1=O` (stereo not drawn) + CN1CCN(c2cc(C(=O)Nc3cc4cc(-c5cnn(C)c5)ccc4cn3)ccn2)CC1 has an IC50 (second compound 0.0316 µM) of over 10000 nM, an IC50 (second compound 0.1 µM) of 319 nM and an IC50 (second compound 0.316 µM) of under 31.6 nM. It also gave an IC50 (second compound 1 µM) of under 31.6 nM, an IC50 (second compound 3.16 µM) of under 31.6 nM and an IC50 (second compound 10 µM) of under 31.6 nM. For the same compound, the viability, T/C [1] was 94.8%, the viability, T/C [2] was 81.7% and the viability, T/C [3] was 69.5%. The viability, T/C [4] was 68.8%, the viability, T/C [5] was 67.5% and the viability, T/C [6] was 57.3%. It also gave a viability, T/C [7] of 53.9%, a viability, T/C [8] of 52.5% and a viability, T/C [9] of 49%. The viability, T/C [10] was 46.2%, the viability, T/C [11] was 49.5% and the viability, T/C [12] was 43.7%. The viability, T/C [13] was 5.52%, the viability, T/C [14] was 5.79% and the viability, T/C [15] was 7.05%. For the same compound, the viability, T/C [16] was 8.98%, the viability, T/C [17] was 8.34% and the viability, T/C [18] was 8.71%. The viability, T/C [19] was 1.36%, the viability, T/C [20] was 1.36% and the viability, T/C [21] was 2.15%. The viability, T/C [22] was 1.19%, the viability, T/C [23] was 1.66% and the viability, T/C [24] was 1.71%. For the same compound, the viability, T/C [25] was 1.12%, the viability, T/C [26] was 1.53% and the viability, T/C [27] was 2.58%. It also gave a viability, T/C [28] of 1.7%, a viability, T/C [29] of 2.81% and a viability, T/C [30] of 2.69%. For the same compound, the viability, T/C [31] was 1.23%, the viability, T/C [32] was 1.96% and the viability, T/C [33] was 2.08%. The viability, T/C [34] was 2.68%, the viability, T/C [35] was 1.84% and the viability, T/C [36] was 2.5%.

Work on `CC(Nc1ccc2c(c1)OCCn1cc(N3C(=O)OCC3C(F)F)nc1-2)C(N)=O` (stereo not drawn) + CN1CCN(c2cc(C(=O)Nc3cc4cc(-c5cnn(C)c5)ccc4cn3)ccn2)CC1 yielded an IC50 (second compound 0.0316 µM) of 862 nM, an IC50 (second compound 0.1 µM) of under 31.6 nM and an IC50 (second compound 0.316 µM) of under 31.6 nM. It also gave an IC50 (second compound 1 µM) of under 31.6 nM, an IC50 (second compound 3.16 µM) of under 31.6 nM and an IC50 (second compound 10 µM) of under 31.6 nM. The viability, T/C [1] was 88.6%, the viability, T/C [2] was 79% and the viability, T/C [3] was 56.9%. It also gave a viability, T/C [4] of 50%, a viability, T/C [5] of 38.6% and a viability, T/C [6] of 28.6%. It also gave a viability, T/C [7] of 43%, a viability, T/C [8] of 41.3% and a viability, T/C [9] of 32.6%. For the same compound, the viability, T/C [10] was 25.1%, the viability, T/C [11] was 21.5% and the viability, T/C [12] was 15.5%. The viability, T/C [13] was 3.15%, the viability, T/C [14] was 3.14% and the viability, T/C [15] was 3.55%. The viability, T/C [16] was 2.62%, the viability, T/C [17] was 2.92% and the viability, T/C [18] was 3.77%. For the same compound, the viability, T/C [19] was 0.54%, the viability, T/C [20] was 0.79% and the viability, T/C [21] was 1.03%. The viability, T/C [22] was 0.19%, the viability, T/C [23] was 0.18% and the viability, T/C [24] was 1.05%. The viability, T/C [25] was 0.69%, the viability, T/C [26] was 2.49% and the viability, T/C [27] was 1.55%. The viability, T/C [28] was 2.4%, the viability, T/C [29] was 2.04% and the viability, T/C [30] was 0.86%. The viability, T/C [31] was 1.76%, the viability, T/C [32] was 0.59% and the viability, T/C [33] was 1.6%. The viability, T/C [34] was 0.79%, the viability, T/C [35] was 0.45% and the viability, T/C [36] was 1.26%.

With `COc1c(OCCCN2CCOCC2)ccc2c3n(c(=NC(=O)c4cnc(N)nc4)nc12)CCN3` + CN1CCN(c2cc(C(=O)Nc3cc4cc(-c5cnn(C)c5)ccc4cn3)ccn2)CC1 the IC50 (second compound 0.0316 µM) was 48.3 nM, the IC50 (second compound 0.1 µM) was under 3.16 nM and the IC50 (second compound 0.316 µM) was under 3.16 nM. The IC50 (second compound 1 µM) was under 3.16 nM, the IC50 (second compound 3.16 µM) was under 3.16 nM and the IC50 (second compound 10 µM) was under 3.16 nM. It also gave a viability, T/C (second compound 0.0316 µM, first compound 0.00316 µM) of 90.4%, a viability, T/C (second compound 0.0316 µM, first compound 0.01 µM) of 74.4% and a viability, T/C [1] of 65.2%. For the same compound, the viability, T/C [2] was 26.8%, the viability, T/C [3] was 16.7% and the viability, T/C [4] was 17.8%. For the same compound, the viability, T/C (second compound 0.1 µM, first compound 0.00316 µM) was 47.1%, the viability, T/C (second compound 0.1 µM, first compound 0.01 µM) was 40% and the viability, T/C [7] was 28.3%. It also gave a viability, T/C [8] of 14.6%, a viability, T/C [9] of 11.1% and a viability, T/C [10] of 13.2%. It also gave a viability, T/C (second compound 0.316 µM, first compound 0.00316 µM) of 4.86%, a viability, T/C (second compound 0.316 µM, first compound 0.01 µM) of 2.92% and a viability, T/C [13] of 3.87%. The viability, T/C [14] was 3.03%, the viability, T/C [15] was 3.72% and the viability, T/C [16] was 2.59%. The viability, T/C (second compound 1 µM, first compound 0.00316 µM) was 0.47%, the viability, T/C (second compound 1 µM, first compound 0.01 µM) was 1.56% and the viability, T/C [19] was 0.48%. For the same compound, the viability, T/C [20] was 0.16%, the viability, T/C [21] was 1.64% and the viability, T/C [22] was 1.15%. The viability, T/C (second compound 3.16 µM, first compound 0.00316 µM) was 1.02%, the viability, T/C (second compound 3.16 µM, first compound 0.01 µM) was 1.06% and the viability, T/C [25] was 1.3%. For the same compound, the viability, T/C [26] was 1.09%, the viability, T/C [27] was 1.55% and the viability, T/C [28] was 0.99%. The viability, T/C (second compound 10 µM, first compound 0.00316 µM) was 0.74%, the viability, T/C (second compound 10 µM, first compound 0.01 µM) was 1.11% and the viability, T/C [31] was 0.45%. It also gave a viability, T/C [32] of 1.75%, a viability, T/C [33] of 2.12% and a viability, T/C [34] of 1.84%.
